Each molecule was assayed against GCN2 (Homo sapiens, UniProt Q9P2K8) (assay: TR-FRET biochemical assay for inhibition of GCN2 (Example 106, for Example 1-4BB)). Settings: Table 8.
GCN2, sequence (Q9P2K8 whole entry): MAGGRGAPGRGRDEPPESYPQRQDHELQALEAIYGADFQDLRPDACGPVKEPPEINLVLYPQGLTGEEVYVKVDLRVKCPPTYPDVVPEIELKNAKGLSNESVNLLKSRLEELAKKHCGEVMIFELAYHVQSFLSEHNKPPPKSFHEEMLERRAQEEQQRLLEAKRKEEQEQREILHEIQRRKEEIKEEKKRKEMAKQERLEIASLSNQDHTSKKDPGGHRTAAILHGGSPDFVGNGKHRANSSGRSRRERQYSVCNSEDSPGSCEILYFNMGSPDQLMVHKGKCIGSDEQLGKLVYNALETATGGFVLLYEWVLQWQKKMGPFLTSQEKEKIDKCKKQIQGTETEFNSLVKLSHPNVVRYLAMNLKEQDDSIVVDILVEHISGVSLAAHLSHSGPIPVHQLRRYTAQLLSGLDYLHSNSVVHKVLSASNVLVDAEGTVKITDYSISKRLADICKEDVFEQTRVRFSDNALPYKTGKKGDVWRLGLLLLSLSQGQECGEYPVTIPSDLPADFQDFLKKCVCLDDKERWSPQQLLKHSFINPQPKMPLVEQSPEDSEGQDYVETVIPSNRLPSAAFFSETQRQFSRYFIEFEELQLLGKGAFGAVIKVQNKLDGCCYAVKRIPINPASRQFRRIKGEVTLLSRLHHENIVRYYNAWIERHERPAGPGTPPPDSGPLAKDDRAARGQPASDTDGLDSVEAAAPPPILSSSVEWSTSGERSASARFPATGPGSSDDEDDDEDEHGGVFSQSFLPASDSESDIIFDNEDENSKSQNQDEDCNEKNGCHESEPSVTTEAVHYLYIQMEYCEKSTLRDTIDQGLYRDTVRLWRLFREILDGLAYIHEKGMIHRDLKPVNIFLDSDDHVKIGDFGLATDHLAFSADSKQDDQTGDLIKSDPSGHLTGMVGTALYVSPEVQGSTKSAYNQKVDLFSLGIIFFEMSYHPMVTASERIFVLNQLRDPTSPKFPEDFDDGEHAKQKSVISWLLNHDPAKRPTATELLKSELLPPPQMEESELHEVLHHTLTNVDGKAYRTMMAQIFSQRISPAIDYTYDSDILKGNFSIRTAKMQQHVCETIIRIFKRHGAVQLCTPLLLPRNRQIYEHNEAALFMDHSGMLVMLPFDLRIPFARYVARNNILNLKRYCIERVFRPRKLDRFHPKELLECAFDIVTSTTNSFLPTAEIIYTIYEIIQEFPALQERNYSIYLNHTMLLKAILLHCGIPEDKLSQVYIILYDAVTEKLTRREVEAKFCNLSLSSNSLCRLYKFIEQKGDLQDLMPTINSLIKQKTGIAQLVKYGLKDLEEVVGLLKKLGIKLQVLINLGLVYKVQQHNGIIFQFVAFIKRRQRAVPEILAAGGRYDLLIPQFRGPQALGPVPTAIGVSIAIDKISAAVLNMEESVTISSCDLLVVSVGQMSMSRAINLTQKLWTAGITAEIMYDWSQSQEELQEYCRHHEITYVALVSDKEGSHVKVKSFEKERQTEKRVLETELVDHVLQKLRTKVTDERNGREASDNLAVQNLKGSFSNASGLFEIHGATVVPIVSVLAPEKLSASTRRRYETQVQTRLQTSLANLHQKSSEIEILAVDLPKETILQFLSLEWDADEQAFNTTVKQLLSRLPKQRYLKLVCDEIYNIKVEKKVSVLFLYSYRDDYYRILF

IC50	SMILES
2.5 to 10 µM	Cn1cc(S(=O)(=O)Nc2ccc(F)c(-c3ccc4c(-c5ncc[nH]5)n[nH]c4c3F)c2F)cn1 [Example 2C, N-(2,4-difluoro-3-(7-fluoro-3-(1H-imidazol-2-yl)-1H-indazol-6-yl)phenyl)-1-methyl-1H-pyrazole-4-sulfonamide]
0.5 to 2.5 µM	Cc1nn(C)cc1S(=O)(=O)Nc1ccc(F)c(-c2ccc3c(-c4ncc[nH]4)n[nH]c3c2F)c1F [Example 2I, N-(2,4-difluoro-3-(7-fluoro-3-(1H-imidazol-2-yl)-1H-indazol-6-yl)phenyl)-1,3-dimethyl-1H-pyrazole-4-sulfonamide]
0.5 to 2.5 µM	Cc1c(O)cccc1S(=O)(=O)Nc1ccc(F)c(-c2ccc3c(-c4ncc[nH]4)n[nH]c3c2F)c1F [Example 2AU, N-(2,4-difluoro-3-(7-fluoro-3-(1H-imidazol-2-yl)-1H-indazol-6-yl)phenyl)-3-hydroxy-2-methylbenzene-sulfonamide]
< 0.5 µM	COc1ncc(Cl)cc1S(=O)(=O)Nc1ncnc(-c2ccc3c(-c4ncc[nH]4)n[nH]c3c2F)c1F [Example 2AK, 5-chloro-N-(5-fluoro-6-(7-fluoro-3-(1H-imidazol-2-yl)-1H-indazol-6-yl)pyrimidin-4-yl)-2-methoxypyridine-3-sulfonamide]
< 0.5 µM	COc1cccc(S(=O)(=O)Nc2ccc(F)c(-c3ccc4c(-c5ncc[nH]5)n[nH]c4c3F)c2F)c1 [Example 2F, N-(2,4-difluoro-3-(7-fluoro-3-(1H-imidazol-2-yl)-1H-indazol-6-yl)phenyl)-3-methoxy-benzene-sulfonamide]
2.5 to 10 µM	CC(C)c1cccc(S(=O)(=O)Nc2ccc(F)c(-c3ccc4c(-c5ncc[nH]5)n[nH]c4c3F)c2F)c1 [Example 2L, N-(2,4-difluoro-3-(7-fluoro-3-(1H-imidazol-2-yl)-1H-indazol-6-yl)phenyl)-3-isopropyl-benzenesulfonamide]
< 0.5 µM	Cc1c(Cl)cccc1S(=O)(=O)Nc1ccc(F)c(-c2ccc3c(-c4ncc[nH]4)n[nH]c3c2F)c1F [Example 2AY, 3-chloro-N-(2,4-difluoro-3-(7-fluoro-3-(1H-imidazol-2-yl)-1H-indazol-6-yl)phenyl)-2-methylbenzenesulfonamide]
< 0.5 µM	O=S(=O)(Nc1ccc(F)c(-c2ccc3c(-c4ncc[nH]4)n[nH]c3c2F)c1F)c1cc(F)ccc1F [Example 2BH, N-(2,4-difluoro-3-(7-fluoro-3-(1H-imidazol-2-yl)-1H-indazol-6-yl)phenyl)-2,5-difluorobenzenesulfonamide]
< 0.5 µM	COc1ncccc1S(=O)(=O)Nc1ccc(F)c(-c2ccc3c(-c4ncc[nH]4)n[nH]c3c2F)c1F [Example 2U, N-(2,4-difluoro-3-(7-fluoro-3-(1H-imidazol-2-yl)-1H-indazol-6-yl)phenyl)-2-methoxy-pyridine-3-sulfonamide]
< 0.5 µM	Cc1ccc(Cl)cc1S(=O)(=O)Nc1ccc(F)c(-c2ccc3c(-c4ncc[nH]4)n[nH]c3c2)c1F [Example 2AW, N-(3-(3-(1H-imidazol-2-yl)-1H-indazol-6-yl)-2,4-difluorophenyl)-5-chloro-2-methylbenzenesulfonamide]
< 0.5 µM	COc1ncc(Cl)cc1S(=O)(=O)Nc1cccc(-c2ccc3c(-c4ncc[nH]4)n[nH]c3c2F)c1F [Example 2M, 5-chloro-N-(2-fluoro-3-(7-fluoro-3-(1H-imidazol-2-yl)-1H-indazol-6-yl)phenyl)-2-methoxy-pyridine-3-sulfonamide]
< 0.5 µM	O=S(=O)(Nc1ccc(F)c(-c2ccc3c(-c4ncc[nH]4)n[nH]c3c2F)c1F)c1ccc(F)cc1Cl [Example 2BS]
0.5 to 2.5 µM	Cc1nn(C)c(C)c1S(=O)(=O)Nc1ccc(F)c(-c2ccc3c(-c4ncc[nH]4)n[nH]c3c2F)c1F [Example 2E, N-(2,4-difluoro-3-(7-fluoro-3-(1H-imidazol-2-yl)-1H-indazol-6-yl)phenyl)-1,3,5-trimethyl-1H-pyrazole-4-sulfonamide]
< 0.5 µM	Cc1cccc(F)c1S(=O)(=O)Nc1ccc(F)c(-c2ccc3c(-c4ncc[nH]4)n[nH]c3c2F)c1F [Example 2AT, N-(2,4-difluoro-3-(7-fluoro-3-(1H-imidazol-2-yl)-1H-indazol-6-yl)phenyl)-2-fluoro-6-methylbenzene-sulfonamide]
0.5 to 2.5 µM	O=S(=O)(Nc1ccc(F)c(-c2ccc3c(-c4ncc[nH]4)n[nH]c3c2F)c1F)c1ccc(F)c(F)c1 [Example 2BO, N-(2,4-difluoro-3-(7-fluoro-3-(1H-imidazol-2-yl)-1H-indazol-6-yl)phenyl)-3,4-difluorobenzenesulfonamide]
< 0.5 µM	O=S(=O)(Nc1ccc(F)c(-c2ccc3c(-c4ncc[nH]4)n[nH]c3c2F)c1F)c1cccc(F)c1F [Example 2AG, N-(2,4-difluoro-3-(7-fluoro-3-(1H-imidazol-2-yl)-1H-indazol-6-yl)phenyl)-2,3-difluorobenzenesulfonamide]
0.5 to 2.5 µM	COc1ncc(Cl)cc1S(=O)(=O)Nc1ccc(F)c(-c2ccc3cn[nH]c3c2)c1F [Example 2BY, 5-chloro-N-(2,4-difluoro-3-(1H-indazol-6-yl)-phenyl)-2-methoxypyridine-3-sulfonamide]
2.5 to 10 µM	O=c1cccc(S(=O)(=O)Nc2ccc(F)c(-c3ccc4c(-c5ncc[nH]5)n[nH]c4c3F)c2F)[nH]1 [Example 2AL, N-(2,4-difluoro-3-(7-fluoro-3-(1H-imidazol-2-yl)-1H-indazol-6-yl)phenyl)-6-oxo-1,6-dihydropyridine-2-sulfonamide]

Same assay, conditions: Table 9

IC50	SMILES
< 0.5 µM	COc1ncc(F)cc1S(=O)(=O)Nc1cccc(-c2ccc3c(-c4ncc[nH]4)n[nH]c3c2F)c1F [Example 3V, N-(2-fluoro-3-(7-fluoro-3-(1H-imidazol-2-yl)-1H-indazol-6-yl)phenyl)-5-fluoro-2-methoxypyridine-3-sulfonamide]
> 10 µM	COc1ncc(F)cc1S(=O)(=O)Nc1cccc(-c2ccc3c(C4CCC(=O)N4)n[nH]c3c2F)c1F (centres unmarked) [Example 12, 5-Fluoro-N-(2-fluoro-3-(7-fluoro-3-(5-oxopyrrolidin-2-yl)-1H-indazol-6-yl)phenyl)-2-methoxypyridine-3-sulfonamide]
< 0.5 µM	O=C(Nc1cnn(CCO)c1)c1n[nH]c2c(F)c(-c3c(F)ccc(NS(=O)(=O)c4cc(F)cc(CO)c4Cl)c3F)ccc12 [Example 4AC]
> 10 µM	CNC(=O)c1n[nH]c2c(F)c(-c3c(F)cnc(NS(=O)(=O)c4cc(F)cnc4C)c3F)ccc12 [Example 24, 6-(3,5-Difluoro-2-((5-fluoro-2-methylpyridine)-3-sulfonamido)pyridin-4-yl)-7-fluoro-N-methyl-1H-indazole-3-carboxamide]
> 10 µM	COc1ncc(F)cc1S(=O)(=O)Nc1ncc(F)c(-c2ccc3c(C(N)=O)n[nH]c3c2F)c1F [Example 3M, 6-(3,5-difluoro-2-((5-fluoro-2-methoxypyridine)-3-sulfonamido)pyridin-4-yl)-7-fluoro-1H-indazole-3-carboxamide]
< 0.5 µM	Cc1ccc(F)cc1S(=O)(=O)Nc1ncc(F)c(-c2ccc3c(-c4ncc[nH]4)n[nH]c3c2F)c1F [Example 30, N-(3,5-Difluoro-4-(7-fluoro-3-(1H-imidazol-2-yl)-1H-indazol-6-yl)pyridin-2-yl)-5-fluoro-2-methylbenzenesulfonamide]
< 0.5 µM	CN(C)CCCNC(=O)c1n[nH]c2c(F)c(-c3c(F)ccc(NS(=O)(=O)c4cc(F)cc(CO)c4F)c3F)ccc12 [Example 4P]
0.5 to 2.5 µM	Cc1ccc(F)cc1S(=O)(=O)Nc1ccc(F)c(-c2cc3[nH]ncc3cn2)c1F [Example 4BB]
< 0.5 µM	Cc1ncc(C#N)cc1S(=O)(=O)Nc1ccc(F)c(-c2ccc3c(C(N)=O)n[nH]c3c2F)c1F [Example 4E]
< 0.5 µM	Cc1ncc(F)cc1S(=O)(=O)Nc1ccc(F)c(-c2ccc3c(-c4cccc(=O)[nH]4)n[nH]c3c2F)c1F [Example 15, N-(2,4-Difluoro-3-(7-fluoro-3-(6-oxo-1,6-dihydropyridin-2-yl)-1H-indazol-6-yl)phenyl)-5-fluoro-2-methylpyridine-3-sulfonamide]
< 0.5 µM	COc1ncc(F)cc1S(=O)(=O)Nc1ccc(F)c(-c2ccc3c(C(=O)NCC#N)n[nH]c3c2F)c1F [Example 3AW, N-(cyanomethyl)-6-(2,6-difluoro-3-((5-fluoro-2-methoxypyridine)-3-sulfon-amido)phenyl)-7-fluoro-1H-indazole-3-carboxamide]
< 0.5 µM	Cc1ncc(F)cc1S(=O)(=O)Nc1ccc(F)c(-c2ccc3c(C(=O)Nc4cn[nH]c4)n[nH]c3c2F)c1F [Example 3DS, 6-(2,6-difluoro-3-((5-fluoro-2-methylpyridine)-3-sulfonamido)phenyl)-7-fluoro-N-(1H-pyrazol-4-yl)-1H-indazole-3-carboxamide]
> 10 µM	Cc1ncccc1S(=O)(=O)Nc1ncc(F)c(-c2ccc3c(-c4ncc[nH]4)n[nH]c3c2F)c1F [Example 3L, N-(3,5-difluoro-4-(7-fluoro-3-(1H-imidazol-2-yl)-1H-indazol-6-yl)pyridin-2-yl)-2-methylpyridine-3-sulfonamide]
2.5 to 10 µM	O=S(=O)(Nc1ccc(F)c(-c2ccc3c(-c4ccccc4)n[nH]c3c2)c1F)c1cc(F)ccc1F [Example 10, N-(2,4-Difluoro-3-(3-phenyl-1H-indazol-6-yl)phenyl)-2,5-difluorobenzenesulfonamide]
< 0.5 µM	COc1ncc(Cl)cc1S(=O)(=O)Nc1ccc(F)c(-c2ccc3c(C(=O)NC[C@H]4CCCN4C)n[nH]c3c2F)c1F [Example 3D, 6-(3-((5-chloro-2-methoxy-pyridine)-3-sulfonamido)-2,6-difluorophenyl)-7-fluoro-N-(((R)-1-methylpyrrolidin-2-yl)methyl)-1H-indazole-3-carboxamide]

More lines, now with the values behind:

SMILES	IC50
COc1ncc(F)cc1S(=O)(=O)Nc1ccc(F)c(-c2ccc3c(C(=O)NC4CCN(C)CC4)n[nH]c3c2F)c1F [Example 3AJ, 6-(2,6-difluoro-3-((5-fluoro-2-methoxypyridine)-3-sulfonamido)phenyl)-7-fluoro-N-(1-methylpiperidin-4-yl)-1H-indazole-3-carboxamide]	< 0.5 µM
O=C(NCCCO)c1n[nH]c2c(F)c(-c3c(F)ccc(NS(=O)(=O)c4cccn5ccnc45)c3F)ccc12 [Example 3AR, 6-(2,6-difluoro-3-(imidazo-[1,2-a]pyridine-8-sulfon-amido)phenyl)-7-fluoro-N-(3-hydroxypropyl)-1H-indazole-3-carboxamide]	2.5 to 10 µM

Source: patent publication US20220388964A1 (HiberCell, Inc., priority 2019, published 2022)
